The target in assay [1] is T1, NAMPT (Homo sapiens, UniProt P43490). Kind of assay: Time-Resolved Fluorescence Resonance Energy Transfer (TR-FRET) Binding Assay of NAMPT. Conditions: 6.8 nM NAMPT, 200 nM probe, equilibrated 3 hours, no substrates. An outline of the steps:
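Compound was mixed with enzyme, probe and antibody and equilibrated 3 h at room temperature. TR-FRET read at Ex 337 nm, Em 520/495 nm. Ratios were normalized to controls and fitted to a four-parameter logistic equation for IC50.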

Assay [2] deals with T1, NAMPT. Kind of assay: TR-FRET Binding Assay of NAMPT with PRPP. Conditions: 2 nM NAMPT, 2 nM probe, 200 µM PRPP and 2.5 mM ATP, equilibrated 16 hours. The procedure:
Time-Resolved Fluorescence Resonance Energy Transfer (TR-FRET) Binding Assay of NAMPT with PRPP
Compound handling and data processing were identical to the assay in the absence of substrates (above). Final concentrations were 1× assay buffer, 2% DMSO, 2 nM NAMPT, 2 nM probe, 1 nM Tb-anti-His antibody (Invitrogen #PV5895), 200 µM PRPP and 2.5 mM ATP. Reactions were equilibrated for 16 hours prior to measurement to allow for potential enzymatic modification of test compounds.
For orientation: TR-FRET usually uses a lanthanide donor and a delayed reading to cut background.

A further assay concerns PC3 cells. The experiment in a line: NAMPT Cell Proliferation Assay (Cell Titer Glo). The assay is classed as cell-based. The note with it: Homo sapiens, PC-3, 120 h, incubated 5 days, cell viability. An outline of the steps: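 PC3 cells (500/well, RPMI with 10% heat-inactivated FBS) were exposed to 10-fold compound dilutions from […] for 5 days at 37 °C, 5% CO2. Viability was read with Cell Titer Glo; IC50 from sigmoidal fit of percent inhibition.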

T1 sequence (P43490 whole entry): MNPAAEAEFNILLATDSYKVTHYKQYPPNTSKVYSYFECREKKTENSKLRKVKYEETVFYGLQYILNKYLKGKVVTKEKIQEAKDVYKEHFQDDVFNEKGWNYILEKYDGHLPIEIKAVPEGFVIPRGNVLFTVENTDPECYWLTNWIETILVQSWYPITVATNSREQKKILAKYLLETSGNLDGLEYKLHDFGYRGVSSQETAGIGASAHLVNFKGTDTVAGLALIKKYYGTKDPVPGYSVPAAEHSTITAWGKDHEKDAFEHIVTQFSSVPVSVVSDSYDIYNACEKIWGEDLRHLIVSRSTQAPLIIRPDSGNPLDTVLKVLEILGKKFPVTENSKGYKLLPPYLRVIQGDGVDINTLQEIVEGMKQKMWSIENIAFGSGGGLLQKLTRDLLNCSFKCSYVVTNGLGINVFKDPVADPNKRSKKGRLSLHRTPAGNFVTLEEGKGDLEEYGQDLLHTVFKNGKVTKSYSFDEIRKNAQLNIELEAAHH

One may read the IC50 as the midpoint of a concentration-inhibition curve. Consider `CN1CCN(CC(=O)N2CC[C@@H](Oc3ccc(NC(=O)N4CC(c5cccnc5)C4)cc3)C2)CC1` [Example 312, N-[4-({(3R)-1-[(4-methylpiperazin-1-yl)acetyl]pyrrolidin-3-yl}oxy)phenyl]-3-(pyridin-3-yl)azetidine-1-carboxamide], for which the IC50 was found to be 0.311 µM on NAMPT [1], 0.00029 µM on NAMPT [2] and 0.211 µM in the assay with PC3 cells.

`COCCOCC(=O)N1CC=C(c2ccc(NC(=O)N3CC(c4cccnc4)C3)cc2)CC1` [Example 23, N-(4-{1-[(2-methoxyethoxy)acetyl]-1,2,3,6-tetrahydropyridin-4-yl}phenyl)-3-(pyridin-3-yl)azetidine-1-carboxamide]: the IC50 at NAMPT [1] is 0.0978 µM; on NAMPT [2], 0.000551 µM; in the assay on PC3 cells, 0.195 µM.

With `O=C(Nc1ccc(C2CN(C(=O)[C@@H]3CCCO3)C2)cc1)N1CC(c2cccnc2)C1` [Example 102, 3-(pyridin-3-yl)-N-(4-{1-[(2S)-tetrahydrofuran-2-ylcarbonyl]azetidin-3-yl}phenyl)azetidine-1-carboxamide], the IC50 was determined as 0.0957 µM at NAMPT [1], 0.000286 µM on NAMPT [2] and 0.0679 µM in the assay with PC3 cells.

Regarding `O=C(Nc1ccc(O[C@@H]2CCN(C(=O)[C@@H]3CCCO3)C2)cc1)N1CC(c2cccnc2)C1` [Example 78, 3-(pyridin-3-yl)-N-[4-({(3R)-1-[(2S)-tetrahydrofuran-2-ylcarbonyl]pyrrolidin-3-yl}oxy)phenyl]azetidine-1-carboxamide], the values for the 50% inhibitory concentration (IC50) on NAMPT [1], at NAMPT [2] and with PC3 cells were 0.137 µM, 0.000226 µM and 0.056 µM, respectively.

For the compound `CCC(=O)N1CCC(c2ccc(NC(=O)N3CC(c4cccnc4)C3)cc2)CC1` [Example 192, N-[4-(1-propanoylpiperidin-4-yl)phenyl]-3-(pyridin-3-yl)azetidine-1-carboxamide], the IC50 on NAMPT [1] is 0.023 µM; on NAMPT [2], 0.000255 µM; in the assay with PC3 cells it was 0.0632 µM.

In the case of `CCOCC(=O)N1CCC(Oc2ccc(NC(=O)N3CC(c4cccnc4)C3)cc2)CC1` [Example 46, N-(4-{[1-(ethoxyacetyl)piperidin-4-yl]oxy}phenyl)-3-(pyridin-3-yl)azetidine-1-carboxamide], the figures for the IC50 at NAMPT [1], at NAMPT [2] and in the assay on PC3 cells were 0.0931 µM, 0.000226 µM and 0.0442 µM, respectively.

With `O=C(CC1CCCC1)N1CC[C@@H](Oc2ccc(NC(=O)N3CC(c4cccnc4)C3)cc2)C1` [Example 300, N-(4-{[(3R)-1-(cyclopentylacetyl)pyrrolidin-3-yl]oxy}phenyl)-3-(pyridin-3-yl)azetidine-1-carboxamide], the half-inhibitory concentration (IC50) on NAMPT [1] stood at 0.0526 µM; at NAMPT [2], 0.000341 µM; in the assay on PC3 cells, 0.0171 µM.

Take `CC(C)(C)CC(=O)N1CC(Oc2ccc(NC(=O)N3CC(c4cccnc4)C3)cc2)C1` [Example 133, N-(4-{[1-(3,3-dimethylbutanoyl)azetidin-3-yl]oxy}phenyl)-3-(pyridin-3-yl)azetidine-1-carboxamide]: the IC50 at NAMPT [1] turned out to be 0.0132 µM; at NAMPT [2], 0.000358 µM; in the assay with PC3 cells, 0.00443 µM.

In the case of `O=C(CC1CCCC1)N1CCC(c2ccc(NC(=O)N3CC(c4cccnc4)C3)cc2)CC1` [Example 196, N-{4-[1-(cyclopentylacetyl)piperidin-4-yl]phenyl}-3-(pyridin-3-yl)azetidine-1-carboxamide], the 50% inhibitory concentration (IC50) worked out at 0.015 µM at NAMPT [1], 0.000281 µM at NAMPT [2] and 0.0646 µM in the assay with PC3 cells.

On to `Cc1ccsc1C(=O)N1CC(c2ccc(NC(=O)N3CC(c4cccnc4)C3)cc2)C1` [Example 220, N-(4-{1-[(3-methylthiophen-2-yl)carbonyl]azetidin-3-yl}phenyl)-3-(pyridin-3-yl)azetidine-1-carboxamide], for which the IC50 was 0.0104 µM at NAMPT [1], 0.00034 µM on NAMPT [2] and 0.00415 µM in the assay with PC3 cells.

For `CCCCC(=O)N1CC[C@@H](Oc2ccc(NC(=O)N3CC(c4cccnc4)C3)cc2)C1` [Example 297, N-(4-{[(3R)-1-pentanoylpyrrolidin-3-yl]oxy}phenyl)-3-(pyridin-3-yl)azetidine-1-carboxamide], the figures for the concentration for half-maximal inhibition (IC50) at NAMPT [1], on NAMPT [2] and in the assay on PC3 cells were 0.0566 µM, 0.000236 µM and 0.0182 µM, respectively.

On to `CN1CCN(CC(=O)N2CCC(c3ccc(NC(=O)N4CC(c5cccnc5)C4)cc3)C2)CC1` (stereo not drawn) [Example 272, N-(4-{1-[(4-methylpiperazin-1-yl)acetyl]pyrrolidin-3-yl}phenyl)-3-(pyridin-3-yl)azetidine-1-carboxamide], for which the values for the 50% inhibitory concentration (IC50) at NAMPT [1], on NAMPT [2] and in the assay on PC3 cells were 0.0907 µM, 0.000241 µM and 0.222 µM, respectively.

For `O=C(CC1CCOCC1)N1CCC(Oc2ccc(NC(=O)N3CC(c4cncc(F)c4)C3)cc2)CC1` [Example 3, 3-(5-fluoropyridin-3-yl)-N-(4-{[1-(tetrahydro-2H-pyran-4-ylacetyl)piperidin-4-yl]oxy}phenyl)azetidine-1-carboxamide], the IC50 at NAMPT [1] was found to be 1.22 µM; on NAMPT [2] it was 0.00764 µM; in the assay with PC3 cells, 4.68 µM.

Take `O=C(CC(F)(F)F)N1CC(c2ccc(NC(=O)N3CC(c4cccnc4)C3)cc2)C1` [Example 108, 3-(pyridin-3-yl)-N-{4-[1-(3,3,3-trifluoropropanoyl)azetidin-3-yl]phenyl}azetidine-1-carboxamide]: the IC50 came to 0.122 µM at NAMPT [1], 0.000411 µM on NAMPT [2] and 0.0815 µM in the assay with PC3 cells.

On to `O=C(CC1CC2CCC1C2)N1CCC(Oc2ccc(NC(=O)N3CC(c4cccnc4)C3)cc2)C1` (stereo not drawn) [Example 299, N-(4-{[1-(bicyclo[2.2.1]hept-2-ylacetyl)pyrrolidin-3-yl]oxy}phenyl)-3-(pyridin-3-yl)azetidine-1-carboxamide], for which the IC50 was found to be 0.0649 µM at NAMPT [1], 0.000451 µM on NAMPT [2] and 0.0146 µM with PC3 cells.

In the case of `O=C(Nc1ccc(OC2CN(C(=O)c3ccno3)C2)cc1)N1CC(c2cccnc2)C1` [Example 148, N-(4-{[1-(1,2-oxazol-5-ylcarbonyl)azetidin-3-yl]oxy}phenyl)-3-(pyridin-3-yl)azetidine-1-carboxamide], the IC50 at NAMPT [1] worked out at 0.0277 µM; at NAMPT [2], 0.000321 µM; in the assay on PC3 cells it was 0.0167 µM.

Regarding `CC[C@H](C)C(=O)N1CCC(Oc2ccc(NC(=O)N3CC(c4cccnc4)C3)cc2)CC1` [Example 4, N-[4-({1-[(2S)-2-methylbutanoyl]piperidin-4-yl}oxy)phenyl]-3-(pyridin-3-yl)azetidine-1-carboxamide], the IC50 on NAMPT [1] was found to be 0.0197 µM; on NAMPT [2], 0.000195 µM; with PC3 cells, 0.014 µM.

Turning to `CCC(=O)N1CC(Oc2ccc(NC(=O)N3CC(c4cccnc4)C3)cc2)C1` [Example 130, N-{4-[(1-propanoylazetidin-3-yl)oxy]phenyl}-3-(pyridin-3-yl)azetidine-1-carboxamide], the results for the IC50 on NAMPT [1], at NAMPT [2] and in the assay on PC3 cells were 0.0847 µM, 0.000559 µM and 0.0787 µM, respectively.

In the case of `O=C(Nc1ccc(OC2CN(C(=O)[C@H]3CCCO3)C2)cc1)N1CC(c2cccnc2)C1` [Example 28, 3-(pyridin-3-yl)-N-[4-({1-[(2R)-tetrahydrofuran-2-ylcarbonyl]azetidin-3-yl}oxy)phenyl]azetidine-1-carboxamide], the IC50 at NAMPT [1] was determined as 0.0772 µM; at NAMPT [2] it was 0.000218 µM; in the assay on PC3 cells it was 0.0642 µM.

The values are drawn from US9296723B2, “NAMPT inhibitors” (AbbVie Inc., priority 2012, dated 2016).
